Series [1] deals with T1, Tyrosine-protein phosphatase non-receptor type 11 (Homo sapiens) (UniProt Q06124).
T1 sequence (whole entry): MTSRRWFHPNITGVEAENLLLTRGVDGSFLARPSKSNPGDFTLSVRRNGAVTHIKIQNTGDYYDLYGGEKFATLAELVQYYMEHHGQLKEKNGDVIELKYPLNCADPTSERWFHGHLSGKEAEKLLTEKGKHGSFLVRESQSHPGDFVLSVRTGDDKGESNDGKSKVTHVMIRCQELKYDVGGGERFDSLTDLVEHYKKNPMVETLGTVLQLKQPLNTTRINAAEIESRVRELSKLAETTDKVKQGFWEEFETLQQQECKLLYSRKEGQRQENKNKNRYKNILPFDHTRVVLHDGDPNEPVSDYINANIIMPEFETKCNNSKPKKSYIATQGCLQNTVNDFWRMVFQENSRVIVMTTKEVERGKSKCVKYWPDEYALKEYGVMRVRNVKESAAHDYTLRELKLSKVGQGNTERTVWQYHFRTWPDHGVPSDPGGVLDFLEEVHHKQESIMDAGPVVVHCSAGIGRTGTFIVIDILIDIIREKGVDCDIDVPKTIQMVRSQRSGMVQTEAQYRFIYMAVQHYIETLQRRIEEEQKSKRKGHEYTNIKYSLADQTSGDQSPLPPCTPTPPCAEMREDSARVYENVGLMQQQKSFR
Briefly: Inhibition of recombinant human SHP2 catalytic domain (246 to 527 amino acid residues) in Tris buffer using pNPP as substrate assessed as apparent second order rate constant after 10 mins.

Series [2] is described as follows: Chemical stability of the compound in Bis-Tris and Tris buffer containing DTPA, sodium acetate, Tween 80 at 500 uM at pH 7.0 at 30 degC incubated for 2.5 hrs prior to addition of PTP1B. Type of series: physicochemical. To be noted: pH 7, 2.5 h.
For series [3], the target named is T2, Tyrosine-protein phosphatase non-receptor type 1 (Homo sapiens) (UniProt P18031).
T2 sequence (whole entry): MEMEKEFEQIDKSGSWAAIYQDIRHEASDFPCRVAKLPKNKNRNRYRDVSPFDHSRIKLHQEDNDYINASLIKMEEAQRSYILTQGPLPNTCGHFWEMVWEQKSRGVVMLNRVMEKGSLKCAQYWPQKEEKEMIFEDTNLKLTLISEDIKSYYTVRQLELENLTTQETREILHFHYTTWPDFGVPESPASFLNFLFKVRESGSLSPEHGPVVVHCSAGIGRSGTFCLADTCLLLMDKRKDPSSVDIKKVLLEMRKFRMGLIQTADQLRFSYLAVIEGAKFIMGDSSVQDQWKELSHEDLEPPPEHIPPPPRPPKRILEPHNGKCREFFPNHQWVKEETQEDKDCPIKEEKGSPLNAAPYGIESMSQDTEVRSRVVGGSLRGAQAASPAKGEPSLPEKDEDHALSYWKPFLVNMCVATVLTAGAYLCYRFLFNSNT
Briefly: Reversible inhibition of recombinant human PTP1B catalytic domain (1 to 322 amino acid residues) in 3,3-dimethylglutarate buffer assessed as inactivation constant kf.

In series [4] the target is T2, Tyrosine-protein phosphatase non-receptor type 1 (Homo sapiens). Briefly: Reversible inhibition of recombinant human PTP1B catalytic domain (1 to 322 amino acid residues) in 3,3-dimethylglutarate buffer assessed as inactivation constant kr.
The target is the same in series [5]. Briefly: Inhibition of recombinant human PTP1B catalytic domain (1 to 322 amino acid residues) using pNPP as substrate assessed as p-nitrophenolate release after 10 mins by spectrophotometric analysis in presence of catalase, superoxide dismutase and mannitol.
Series [6] has the same target. Briefly: Reversible inhibition of recombinant human PTP1B catalytic domain (1 to 322 amino acid residues) in Tris buffer assessed as inactivation constant kf.
For series [7] the target is unchanged. Briefly: Reversible inhibition of recombinant human PTP1B catalytic domain (1 to 322 amino acid residues) in Tris buffer assessed as inactivation constant kr.
The target of series [8] is T1, Tyrosine-protein phosphatase non-receptor type 11 (Homo sapiens). Briefly: Inhibition of recombinant human SHP2 catalytic domain (246 to 527 amino acid residues) in 3,3-dimethylglutarate buffer using pNPP as substrate assessed as p-nitrophenolate release by spectrophotometric analysis in presence of reversible, site-directed inhibitor phosphate, arsenate.
Series [9] has the same target. Briefly: Inhibition of recombinant human SHP2 catalytic domain (246 to 527 amino acid residues) in 3,3-dimethylglutarate buffer using pNPP as substrate assessed as apparent second order rate constant after 10 mins.
Series [10] has as its target T2, Tyrosine-protein phosphatase non-receptor type 1 (Homo sapiens). Briefly: Reversible inhibition of recombinant human PTP1B catalytic domain (1 to 322 amino acid residues) measured for 3 hrs by gel filtration assay. In general terms: In gel filtration, larger molecules generally elute earlier.
Series [11] has the same target. Briefly: Inhibition of recombinant human PTP1B catalytic domain (1 to 322 amino acid residues) using pNPP as substrate assessed as p-nitrophenolate release at 200 uM after 10 mins by spectrophotometric analysis in presence of reversible, site-directed inhibitor phosphate, arsenate.
Series [12] shares this target. Briefly: Inhibition of recombinant human PTP1B catalytic domain (1 to 322 amino acid residues) using pNPP as substrate assessed as p-nitrophenolate release at 500 uM incubated with first aliquot of enzyme for 2000 secs followed by addition of second aliquot of enzyme measured for 1500 secs by spectrophotometric analysis.
Series [13] is described as follows: Chemical stability of the compound in 3,3-dimethylglutarate buffer containing DTPA, sodium acetate, Tween 80 at 500 uM at pH 7.0 at 30 degC incubated for 2.5 hrs prior to addition of PTP1B. The series is classed as physicochemical. To be noted: pH 7, 2.5 h.

Molecules are shown by their SMILES. Active and inactive are the calls of the source. The rule behind the calls is not given here.

Take `C=CCN=C=S` [ALLYL ISOTHIOCYANATE]: the Kapp in series [1] worked out at 16 M⁻¹ s⁻¹; in series [9], 9 M⁻¹ s⁻¹. Besides, the Stability result was “Unstable” in series [2] and “Stable” in series [13]. The K worked out at 2.7 M⁻¹ s⁻¹ in series [3], 8.3 ×10⁻⁵ /s in series [4], 2.3 M⁻¹ s⁻¹ in [6] and 2.3 ×10⁻⁴ /s in [7]. Also, the inhibition result in series [5], in series [10] and in [12] was “Active” in each case. Also, the inhibition entry in series [8] and in series [11] was “inactive” throughout.

With `C[S+]([O-])CCCCN=C=S` (stereo not drawn), the results for the Kapp in series [1] and in series [9] were 3.5 M⁻¹ s⁻¹ and 3.7 M⁻¹ s⁻¹, respectively. Further, the K in series [3] is 2.4 M⁻¹ s⁻¹; in series [4] it was 1.4 ×10⁻⁴ /s. In addition, in series [8], the inhibition result is “inactive”.

For the origin of these results see ChEMBL document CHEMBL3627631, “Inactivation of protein tyrosine phosphatases by dietary isothiocyanates” (Bioorg Med Chem Lett, 2015).
